# Measured values reported in US6221865A, “Inhibitors of protein isoprenyl transferases” (priority 1998, dated 2001).
# Structures can show the parent of a compound that is named as a salt.
# Target: T1, protein farnesyltransferase (Rattus norvegicus, UniProt Q02293+Q04631)
# T1 construct: The enzyme is purified according to Reiss, Y., et al., Cell, 62: 81-88 (1990), utilizing steps one through three; from tissue; host or cells: rat brain
# Test: Inhibition of farnesyltransferase (scintillation proximity assay, rat brain enzyme, biotin-K Ras B fragment substrate)
# Format: biochemical
# Conditions: for inhibition at 0.1 µM: read-out: % inhibition at 0.1 μM (*); for inhibition at 0.1 µM / % inhibition at 0.1 μM (*): Table 6, * = 0.1 μM (footnote), title prints 0.1 mM; for inhibition at 0.01 µM: read-out: % inhibition at 0.01 μM (**); for inhibition at 0.01 µM / % inhibition at 0.01 μM (**): Table 6, ** = 0.01 μM (footnote), title prints 0.01 mM
# Procedure, shortened: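 Enzyme from rat brain, partly purified (steps one to three), assayed by SPA kit using 0.1 mM final biotin-K Ras B peptide as prenyl acceptor rather than biotin-lamin. Activity given as percent inhibition.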
# T1 sequence (Q02293 whole entry, one chain of several): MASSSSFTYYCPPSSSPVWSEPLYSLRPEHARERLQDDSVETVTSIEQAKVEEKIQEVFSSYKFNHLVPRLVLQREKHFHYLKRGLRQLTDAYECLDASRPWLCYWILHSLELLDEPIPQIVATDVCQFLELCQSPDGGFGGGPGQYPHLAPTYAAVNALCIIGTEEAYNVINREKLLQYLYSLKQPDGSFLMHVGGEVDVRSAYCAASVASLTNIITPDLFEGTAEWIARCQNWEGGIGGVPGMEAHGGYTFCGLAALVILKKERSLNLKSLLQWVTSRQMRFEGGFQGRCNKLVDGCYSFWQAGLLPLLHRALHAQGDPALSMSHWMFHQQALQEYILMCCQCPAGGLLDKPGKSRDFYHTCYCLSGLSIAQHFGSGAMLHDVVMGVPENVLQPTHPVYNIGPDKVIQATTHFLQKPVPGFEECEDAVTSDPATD
inhibition at 0.1 µM [%],inhibition at 0.01 µM [%],Molecule,other results
92,–,"CSCC[C@H](NC(=O)c1ccc(CN2CC(F)(F)C[C@H]2COCC2CCCCC2)cc1-c1ccccc1C)C(=O)O [Example 1117, N-[4-(2(S)-cyclohexylmethyloxymethyl-4,4-difluoropyrrolidin-1-ylmethyl)-2-(2-methylphenyl)benzoyl]methionine]",–
86,–,"COCC1CCC(Cc2ccccc2)N1Cc1ccc(C(=O)N[C@@H](CCSC)C(=O)O)c(-c2ccccc2C)c1 (stereo partly drawn) [Example 1118, N-[4-(2-methoxymethyl-5-benzylpyrrolidin-1-ylmethyl)-2-(2-methylphenyl)benzoyl]methionine]",–
–,84,"CSCC[C@H](NC(=O)c1ccc(CN2CCC[C@@H]2COCC2CCCCC2)cc1-c1ccccc1C)C(=O)O [Example 1119, N-[4-(2-cyclohexylmethoxymethylpyrrolidin-1-ylmethyl)-2-(2-methylphenyl)benzoyl]methionine]",–
72,–,"COC1CC(COCc2ccccc2)N(Cc2ccc(C(=O)N[C@@H](CCSC)C(=O)O)c(-c3ccccc3C)c2)C1 (stereo partly drawn) [Example 1121, N-[4-(2-benzyloxymethyl-4-methoxypyrrolidin-1-ylmethyl)-2-(2-methylphenyl)benzoyl]methionine]",–
90,–,"COC1CC(COCC2CCCCC2)N(Cc2ccc(C(=O)NC(CCSC)C(=O)O)c(-c3ccccc3C)c2)C1 [Example 1123, N-[4-(2(S)-cyclohexylmethoxymethyl-4(R-methoxypyrrolidin-1-ylmethyl)-2-(2-methylphenyl)benzoyl]methionine]",–
92,–,"CSCC[C@H](NC(=O)c1ccc(CN2CCC[C@H]2CN2CCCCC2)cc1-c1ccccc1C)C(=O)O [Example 1125, N-[4-(2-piperidin-1-ylmethylpyrrolidin-1-ylmethyl)-2-(2-methylphenyl)benzoyl]methionine]",–
90,–,CSCC[C@H](NC(=O)c1ccc(CN2CCC[C@H]2CN(C)C2CCCCC2)cc1-c1ccccc1C)C(=O)O [Example 1127],–
–,88,"CSCC[C@H](NC(=O)c1ccc(CN2OCCC2COC2CCCCC2)cc1-c1ccccc1C)C(=O)O (stereo partly drawn) [Example 1130, N-[4-(3-cyclohexyloxymethylisoxazolidin-2-ylmethyl)-2-(2-methylphenyl)benzoyl]methionine]",–
–,–,CCSCC(CC1CCCCC1)NCc1cc(-c2ccccc2C)c(C(=O)N[C@@H](CCSC)C(=O)O)cc1F (stereo partly drawn) [Example 1134],% inhibition at 0.01 μM (**): 95%
–,–,CCC(=O)N(CCCc1ccc(C(=O)N[C@@H](CCSC)C(=O)O)c(-c2ccccc2C)c1)C1CCCCC1 [Example 1145],% inhibition at 0.1 μM (*): 83%
–,73,"CSCC[C@H](NC(=O)c1ccc(C/C(=C\c2cncs2)COc2cc(F)cc(F)c2)cc1-c1ccccc1C)C(=O)O [Example 1163, N-{4-[E-2-(3,5-diflourophenoxy)methyl-3-(thiazol-5-yl)prop-2-enyl]-2-(2-methylphenyl)benzoyl}methionine Lithium Salt]",–
–,–,CCCCN(CCN1CCCCC1)Cc1ccc(C(=O)N[C@@H](CCSC)C(=O)O)c(-c2ccccc2C)c1 [Example 1196],% inhibition at 0.1 μM (*): 87%
86,–,"CSCC[C@H](NC(=O)c1ccc(CP(C)(=O)CC2CCCCC2)cc1-c1ccccc1C)C(=O)O (stereo partly drawn) [Example 1212, N-[4-((Cylohexylmethyl)methyl(oxophosphinyl)methyl)-2-(2-methylphenyl)benzoyl]methionine]",–
–,79,"CCCCP(=O)(Cc1ccc(C(=O)N[C@@H](CCSC)C(=O)O)c(-c2ccccc2C)c1)CC1CCCCC1 (stereo partly drawn) [Example 1213, N-[4-((Cylohexylmethyl)butyl(oxophosphinyl)methyl)-2-(2-methylphenyl)benzoyl]methionine]",–
–,92,"CSCC[C@H](NC(=O)c1ccc(CP(=O)(CC2CCCCC2)CC2CCCCC2)cc1-c1ccccc1C)C(=O)O [Example 1214, N-[4-(Di(cylohexylmethyl)(oxophosphinyl)methyl)-2-(2-methylphenyl)benzoyl]methionine]",–
–,85,"CSCC[C@H](NC(=O)c1ccc(CP(=O)(CCC2CCCCC2)CCC2CCCCC2)cc1-c1ccccc1C)C(=O)O [Example 1219, N-[4-(Di(2-cylohexylethyl)(oxophosphinyl)methyl)-2-(2-methylphenyl)benzoyl]methionine]",–
89,–,"CCCCP(=O)(CCCC)Cc1ccc(C(=O)N[C@@H](CCSC)C(=O)O)c(-c2ccccc2C)c1 [Example 1222, N-[4-(Dibutyl(oxophosphinyl)methyl)-2-(2-methylphenyl)benzoyl]methionine]",–
–,–,CCCCC(OCc1ccc(C(=O)N[C@@H](CCSC)C(=O)[O-])c(-c2ccccc2C)c1)C1CCNCC1.[Li+] (stereo partly drawn) [Example 1288],% inhibition at 0.1 μM (*): 69%
–,–,CCSCC(CC1CCCCC1)NCc1cc(-c2ccccc2C)c(C(=O)N[C@@H](CCSC)C(=O)O)cc1OC (stereo partly drawn) [Example 1337],% inhibition at 0.01 μM (**): 83%
–,–,N-[4-(2-fluoren-4-ylethyl)-2-(2-methylphenyl)benzoyl]methionine lithium salt [Example 464],% inhibition of farnesyltransferase at 1 × 10^-7 M (1 × 10^-7 M (Table 3)): 86%
–,–,N-[4-(4-phenylcyclohexylidenyl)-2-(2-methylphenyl)benzoyl]methionine lithium salt [Example 789],% inhibition of farnesyltransferase at 1 × 10^-6 M (1 × 10^-6 M (Table 2)): 86%

Molecule,inhibition at 0.1 µM [%],inhibition at 0.01 µM [%],other results
"CCCCN(Cc1cc(F)cc(F)c1)OCc1ccc(C(=O)N[C@@H](CCSC)C(=O)O)c(-c2ccccc2C)c1 [Example 1176, N-[4-N-Butyl-N-(3,5-difluorobenzyl)aminooxymethyl-2-(2-methylphenyl)benzoyl]methionine lithium salt]",97,–,–
CCCCN(CC1CCCCC1)OCc1ccc(C(=O)N[C@@H](CCSC)C(=O)O)c(-c2ccccc2C)c1 [Example 1186],–,93,–
"CSCC[C@H](NC(=O)c1ccc(CC(CO)CCC2CCCCC2)cc1-c1ccccc1C)C(=O)O (stereo partly drawn) [Example 1299, N-[4-(2-(2-Cyclohexylethyl)-1-hydroxyprop-3-yl)-2-(2-methylphenyl)benzoyl]methionine Lithium Salt]",–,96,–
"CCSCC(CCC1CCCCC1)Cc1ccc(C(=O)N[C@@H](CCSC)C(=O)O)c(-c2ccccc2C)c1 (stereo partly drawn) [Example 1300, N-[4-(2-(2-Cyclohexylethyl)-1-ethylthioprop-3-yl)-2-(2-methylphenyl)benzoyl]methionine Lithium Salt]",97,–,–
"CSCC[C@H](NC(=O)c1ccc(CC(CCC2CCCCC2)C(=O)OC(C)(C)C)cc1-c1ccccc1C)C(=O)O (stereo partly drawn) [Example 1301, N-[4-(2-(2-cyclohexylethyl)t-butylpropion-3-yl)-2-(2-methylphenyl)benzoyl]methionine Lithium Salt]",97,–,–
"CSCC[C@H](NC(=O)c1ccc(CC(CCC2CCCCC2)S(=O)(=O)c2ccccc2)cc1-c1ccccc1C)C(=O)O (stereo partly drawn) [Example 1302, N-[4-(4-Cyclohexyl-2-phenylsulfonylbut-1-yl)-2-(2-methylphenyl)benzoyl]methionine Lithium Salt]",–,93,–
